This note sets out measurements from patent US11072616B2, “Cyclic peptides targeting alpha-4-beta-7 integrin” (Zealand Pharma A/S, priority 2015, dated 2021).

This assay has as its target T1, integrin α4β7 (Homo sapiens, UniProt P13612+P26010).
T1 sequence (P13612 34-977 limits assumed): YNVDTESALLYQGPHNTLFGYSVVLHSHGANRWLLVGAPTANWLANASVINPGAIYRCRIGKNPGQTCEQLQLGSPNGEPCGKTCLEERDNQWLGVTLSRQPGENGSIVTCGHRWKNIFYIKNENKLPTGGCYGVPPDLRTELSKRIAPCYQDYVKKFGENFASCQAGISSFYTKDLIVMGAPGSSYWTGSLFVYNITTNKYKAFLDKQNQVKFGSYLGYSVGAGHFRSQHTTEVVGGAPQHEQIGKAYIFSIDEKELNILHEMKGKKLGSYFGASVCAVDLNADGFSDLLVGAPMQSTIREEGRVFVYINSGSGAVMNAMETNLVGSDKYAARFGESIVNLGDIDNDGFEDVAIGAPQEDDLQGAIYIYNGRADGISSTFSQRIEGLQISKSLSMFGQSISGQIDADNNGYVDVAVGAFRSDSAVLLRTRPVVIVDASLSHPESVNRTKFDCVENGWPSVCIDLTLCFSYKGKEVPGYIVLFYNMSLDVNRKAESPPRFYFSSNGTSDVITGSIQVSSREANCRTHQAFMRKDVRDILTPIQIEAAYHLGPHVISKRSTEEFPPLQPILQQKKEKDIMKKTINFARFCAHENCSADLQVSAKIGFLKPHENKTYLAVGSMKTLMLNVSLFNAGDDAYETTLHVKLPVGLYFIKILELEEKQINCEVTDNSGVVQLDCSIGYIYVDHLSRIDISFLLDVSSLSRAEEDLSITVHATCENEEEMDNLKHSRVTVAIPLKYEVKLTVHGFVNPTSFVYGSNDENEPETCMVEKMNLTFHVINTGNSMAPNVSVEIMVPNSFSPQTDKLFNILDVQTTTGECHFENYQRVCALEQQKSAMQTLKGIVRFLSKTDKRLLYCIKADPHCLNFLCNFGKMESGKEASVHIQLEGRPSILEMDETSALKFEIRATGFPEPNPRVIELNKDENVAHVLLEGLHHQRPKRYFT
T1 sequence (P26010 20-723 limits assumed): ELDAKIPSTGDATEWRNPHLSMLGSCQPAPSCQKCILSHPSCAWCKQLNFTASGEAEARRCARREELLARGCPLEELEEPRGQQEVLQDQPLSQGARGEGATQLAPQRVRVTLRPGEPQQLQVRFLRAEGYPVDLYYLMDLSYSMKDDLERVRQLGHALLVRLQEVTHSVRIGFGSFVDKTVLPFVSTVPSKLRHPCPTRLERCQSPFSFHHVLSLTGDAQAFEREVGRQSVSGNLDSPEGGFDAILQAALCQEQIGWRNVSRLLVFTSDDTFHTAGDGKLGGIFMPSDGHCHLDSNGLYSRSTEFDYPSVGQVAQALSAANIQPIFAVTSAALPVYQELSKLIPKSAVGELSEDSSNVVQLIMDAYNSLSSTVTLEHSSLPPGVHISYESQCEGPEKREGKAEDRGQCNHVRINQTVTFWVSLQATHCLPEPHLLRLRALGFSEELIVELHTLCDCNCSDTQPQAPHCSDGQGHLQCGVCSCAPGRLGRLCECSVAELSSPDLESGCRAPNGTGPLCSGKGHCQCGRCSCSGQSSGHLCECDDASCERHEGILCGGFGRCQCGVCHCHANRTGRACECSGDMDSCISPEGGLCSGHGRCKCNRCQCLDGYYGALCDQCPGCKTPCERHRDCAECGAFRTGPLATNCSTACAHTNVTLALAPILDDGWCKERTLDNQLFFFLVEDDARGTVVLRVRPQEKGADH
Nature of the assay: Integrin α4β7—MAdCAM-1 competition assay (ELISA). The settings on record: ratio a4b1 ELISA IC50 / a4b7 ELISA IC50. The format is binding. As for the experimental part:
Integrin α4β7—MAdCAM-1 Competition Assay
The plate was incubated at 4° C. overnight. […] The plate was then incubated for 1 hour at room temperature. The plate was washed three times with wash buffer (50 mM Tris, 100 mM NaCl, 1 mM MnCl2, 0.05% Tween). To each well, 50 μl of compound diluted in assay buffer was added by transfer from a compound serial dilution plate. […] The plate was incubated at room temperature with shaking for 2 hours to reach binding equilibrium. Then the plate was washed three times in wash buffer and 100 μl anti-human IgG Fc specific-horseradish peroxidase (HRP) (Abcam, Ab97225) diluted at 1:2000 in assay buffer was added to each well. The plate was incubated at room temperature for 1 hour under agitation. The plates were then washed three times and 100 μl of 1,3′,5,5′-tetramethylbenxidie (TMB) was then added to each well.

In the case of `CC[C@H](C)[C@@H]1NC(=O)[C@H](CC(=O)O)NC(=O)[C@H](CC(C)C)NC(=O)C[C@@H](CCCCN)NC(=O)[C@H](Cc2ccccc2)NC(=O)[C@@H]2CCCN2[C@H](C(=O)NC(C)(C)C)[C@H](C)NC1=O` [Compound 220], the “Selectivity ELISA” value is 18.2.

In the case of `CC(C)C[C@@H]1NC(=O)[C@@H](CCCNC(=N)N)N(C)C(=O)[C@H](Cc2ccc(O)cc2)NC(=O)[C@@H]2CCCN2[C@H](C(=O)NC(C)(C)C)[C@H](C)NC(=O)[C@H]([C@@H](C)O)NC(=O)[C@H](CC(=O)O)NC1=O` [Compound 157], the “Selectivity ELISA” value amounted to 55.3.

For `CC(C)C[C@@H]1NC(=O)[C@H]2C[C@H](O)CN2C(=O)[C@H](Cc2cscn2)NC(=O)[C@@H]2CCCN2[C@H](C(=O)NC(C)(C)C)[C@H](C)NC(=O)[C@H]([C@@H](C)O)NC(=O)[C@H](CC(=O)O)NC1=O` [Compound 151], the “Selectivity ELISA” value was 4.1.

Take `CC(C)C[C@@H]1NC(=O)[C@H]2CCCN2C(=O)[C@H](Cc2cc(F)c(F)c(F)c2)NC(=O)[C@@H]2CCCN2[C@H](C(=O)NC(C)(C)C)[C@H](C)NC(=O)[C@H]([C@@H](C)O)NC(=O)[C@H](CC(=O)O)NC1=O` [Compound 128]: the “Selectivity ELISA” value turned out to be 11.4.

For the molecule `C[C@@H]1NC(=O)[C@H]([C@@H](C)O)NC(=O)[C@H](CC(=O)O)NC(=O)[C@H](CC(C)(C)C)NC(=O)[C@H]2CCCCN2C(=O)[C@H](Cc2ccc(O)cc2)NC(=O)[C@@H]2CCCN2[C@@H]1C(=O)NC(C)(C)C` [Compound 150], the “Selectivity ELISA” value was found to be 8.2.

Take `CC(C)C[C@@H]1NC(=O)c2ccc(-c3ccncc3)c(c2)CNC(=O)[C@H](Cc2ccc(O)cc2)NC(=O)[C@@H]2CCCN2[C@H](C(=O)NC(C)(C)C)[C@H](C)NC(=O)[C@H]([C@@H](C)O)NC(=O)[C@H](CC(=O)O)NC1=O` [Compound 337]: the “Selectivity ELISA” value is 2.9.

As to `CC(C)C[C@@H]1NC(=O)C[C@H](CCCCN)NC(=O)C2(CCNCC2)NC(=O)[C@@H]2CCCN2[C@H](C(=O)NC(C)(C)C)[C@H](C)NC(=O)[C@H]([C@@H](C)O)NC(=O)[C@H](CC(=O)O)NC1=O` [Compound 275], the “Selectivity ELISA” value came out at 7.7.

Consider `CC(C)C[C@@H]1NC(=O)[C@H](CC2CCCCC2)NC(=O)[C@@H]2CCCN2[C@H](C(=O)NC(C)(C)C)[C@H](C)NC(=O)[C@H]([C@@H](C)O)NC(=O)[C@H](CC(=O)O)NC1=O` [Compound 7], for which the “Selectivity ELISA” value is 1.6.

On to `CC(C)C[C@@H]1NC(=O)C[C@H](CCCCN)NC[C@H](Cc2ccc(CN)cc2)NC(=O)[C@@H]2CCCN2[C@H](C(=O)NC(C)(C)C)[C@H](C)NC(=O)[C@H]([C@@H](C)O)NC(=O)[C@H](CC(=O)O)NC1=O` [Compound 218], for which the “Selectivity ELISA” value amounted to 16.5.

For `CC(C)C[C@@H]1NC(=O)[C@H]2c3ccccc3CCN2C(=O)[C@@H]2CCCN2[C@H](C(=O)NC(C)(C)C)[C@H](C)NC(=O)[C@H]([C@@H](C)O)NC(=O)[C@H](CC(=O)O)NC1=O` [Compound 98], the “Selectivity ELISA” value came to 2.7.

As for `CC(C)C[C@@H]1NC(=O)c2cc(cc(-c3ccncc3)c2)CNC(=O)[C@@H]2CCCN2[C@H](C(=O)NC(C)(C)C)[C@H](C)NC(=O)[C@H]([C@@H](C)O)NC(=O)[C@H](CC(=O)O)NC1=O` [Compound 362], the “Selectivity ELISA” value came out at 5.6.

On to `CC(C)C[C@@H]1NC(=O)[C@@H]2C[C@@H](OCc3ccccc3)CN2C(=O)[C@@H]2CCCN2[C@H](C(=O)NC(C)(C)C)[C@H](C)NC(=O)[C@H]([C@@H](C)O)NC(=O)[C@H](CC(=O)O)NC1=O` [Compound 57], for which the “Selectivity ELISA” value is recorded as 2.5.

Take `COc1ccc(-c2ccccc2C[C@@H]2NC(=O)[C@@H]3CCCN3[C@H](C(=O)NC(C)(C)C)[C@H](C)NC(=O)[C@H]([C@@H](C)O)NC(=O)[C@H](CC(=O)O)NC(=O)[C@H](CC(C)C)NC(=O)[C@H]3CCCCN3C2=O)cc1` [Compound 137]: the “Selectivity ELISA” value came out at 7.8.

For the molecule `CC(C)C[C@@H]1NC(=O)[C@H]2CCCCN2C(=O)[C@H](Cc2cccc3ccccc23)NC(=O)[C@@H]2CCCN2[C@H](C(=O)NC(C)(C)C)[C@H](C)NC(=O)[C@H]([C@@H](C)O)NC(=O)[C@H](CC(=O)O)NC1=O` [Compound 143], the “Selectivity ELISA” value is reported as 2.1.

Regarding `CC(C)C[C@@H]1NC(=O)[C@@H](CCCCN)NC(=O)[C@H](Cc2cccc3ccccc23)NC(=O)[C@@H]2CCCN2[C@H](C(=O)NC(C)(C)C)[C@H](C)NC(=O)[C@H]([C@@H](C)O)NC(=O)[C@H](CC(=O)O)NC1=O` [Compound 120], the “Selectivity ELISA” value is given as 19.1.

Regarding `CC(C)C[C@@H]1NC(=O)CN(C)C(=O)[C@H](Cc2csc(-c3ccccn3)n2)NC(=O)[C@@H]2CCCN2[C@H](C(=O)NC(C)(C)C)[C@H](C)NC(=O)[C@H]([C@@H](C)O)NC(=O)[C@H](CC(=O)O)NC1=O` [Compound 179], the “Selectivity ELISA” value turned out to be 15.2.

On to `CC(C)C[C@@H]1NC(=O)[C@H]2CCCCN2C(=O)[C@H](Cc2ccccc2-c2ccccc2)NC(=O)[C@@H]2CCCN2[C@H](C(=O)NC(C)(C)C)[C@H](C)NC(=O)[C@H]([C@@H](C)O)NC(=O)[C@H](CC(=O)O)NC1=O` [Compound 134], for which the “Selectivity ELISA” value turned out to be 7.6.

Regarding `CC(C)C[C@@H]1NC(=O)[C@H](Cc2c[nH]cn2)NC(=O)[C@@H]2CCCN2[C@H](C(=O)NC(C)(C)C)[C@@H](CSc2ccccc2)NC(=O)[C@H](C(C)C)NC(=O)[C@H](CC(=O)O)NC1=O` [Compound 2], the “Selectivity ELISA” value was 1.697.

Regarding `CC(C)C[C@@H]1NC(=O)CN(C)C(=O)[C@H](Cc2ccc(I)cc2)NC(=O)[C@@H]2CCCN2[C@H](C(=O)NC(C)(C)C)[C@H](C)NC(=O)[C@H]([C@@H](C)O)NC(=O)[C@H](CC(=O)O)NC1=O` [Compound 107], the “Selectivity ELISA” value worked out at 16.0.

As to `CC(C)C[C@@H]1NC(=O)[C@H](Cc2ccc(O)cc2)NC(=O)[C@@H]2CCCN2[C@H](C(=O)NC(C)(C)C)[C@H](C)NC(=O)[C@H](C(C)(C)S)NC(=O)[C@H](CC(=O)O)NC1=O` [Compound 55], the “Selectivity ELISA” value is reported as 1.1.

Regarding `CC[C@H](C)[C@@H]1NC(=O)[C@H](CC(=O)O)NC(=O)[C@H](CC(C)C)NC(=O)[C@H](Cc2c[nH]c3ccccc23)NC(=O)[C@@H]2CCCN2[C@H](C(=O)NC(C)(C)C)[C@H](C)NC1=O` [Compound 8], the “Selectivity ELISA” value is listed as 0.9.

`CC(C)C[C@@H]1NC(=O)C[C@H](CCCCN)NC(=O)[C@H](Cc2ccc(CN)cc2)NC(=O)[C@@H]2CCCN2[C@H](C(=O)NC(C)(C)C)[C@H](C)NC(=O)[C@H](C(C)C)NC(=O)[C@H](CC(=O)O)NC1=O` [Compound 254]: the “Selectivity ELISA” value was determined as 33.0.

Take `CC(C)C[C@@H]1NC(=O)[C@H](C2CCCCC2)NC(=O)[C@@H]2CCCN2[C@H](C(=O)NC(C)(C)C)[C@H](C)NC(=O)[C@H]([C@@H](C)O)NC(=O)[C@H](CC(=O)O)NC1=O` [Compound 91]: the “Selectivity ELISA” value is listed as 14.5.

With `CC(C)C[C@@H]1NC(=O)[C@H]2CCCCN2C(=O)[C@H](Cc2ccccc2I)NC(=O)[C@@H]2CCCN2[C@H](C(=O)NC(C)(C)C)[C@H](C)NC(=O)[C@H]([C@@H](C)O)NC(=O)[C@H](CC(=O)O)NC1=O` [Compound 133], the “Selectivity ELISA” value is 5.3.

With `CC(C)C[C@@H]1NC(=O)[C@H](Cc2ccccc2)NC(=O)[C@@H]2C[C@@H](F)CN2[C@H](C(=O)NC(C)(C)C)[C@H](C)NC(=O)[C@H]([C@@H](C)O)NC(=O)[C@H](CC(=O)O)NC1=O` [Compound 45], the “Selectivity ELISA” value was 3.2.
